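Results reflect a 48-hour exposure of cells in 96-well plates to compound at five concentrations. Here, GI50 denotes the concentration required for 50% inhibition of growth. TGI denotes the concentration required for complete inhibition of growth.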
Legend:
Assay in all cases: NCI anticancer screen, dose series, 48 h
[1] = tested on: CCRF-CEM leukemia
[2] = tested on: DMS 273 small cell lung
[3] = tested on: HOP-18 NSCLC
[4] = tested on: KM20L2 colon
[5] = tested on: LXFL 529 NSCLC
[6] = tested on: NCI-H23 lung
[7] = tested on: SNB-78 CNS
[8] = tested on: DU-145 prostate
[9] = tested on: HS 578T breast
[10] = tested on: PC-3 prostate
[11] = tested on: T-47D breast

## Cc1c(NC(=O)C(=O)N=NC(=O)c2ccncc2)c(O)c2ccccc2c1O
[1]
  TGI: > 87 µM
[2]
  TGI: 23.2 µM
[3]
  TGI: 22.3 µM
[4]
  TGI: 70.3 µM
[5]
  TGI: 28.2 µM
[6]
  TGI: 23.5 µM
[7]
  TGI: 39.7 µM

## O=C1C2=C(c3ccccc31)C(c1cccc(Cl)c1)NC(=S)N2 (stereo unspecified)
[1]
  TGI: > 100 µM
[2]
  TGI: > 100 µM
[4]
  TGI: > 100 µM
[5]
  TGI: > 100 µM
[6]
  TGI: > 100 µM

## N[C@H]1C2C3CC4C5CC(C42)C1(c1ccccc1)C53 (stereo partly specified)
[1]
  TGI: > 100 µM
[2]
  TGI: > 100 µM
[3]
  TGI: > 100 µM
[4]
  TGI: > 100 µM
[5]
  TGI: > 100 µM
[6]
  TGI: > 100 µM
[7]
  TGI: > 100 µM

## O=[N+]([O-])c1ccc(-c2ccc(/C=N/n3c(-c4ccc(Cl)cc4)n[nH]c3=S)o2)cc1
[1]
  TGI: > 100 µM
[2]
  TGI: > 63.3 µM
[3]
  TGI: > 100 µM
[4]
  TGI: > 65.8 µM
[5]
  TGI: > 71.1 µM
[6]
  TGI: > 56.6 µM
[7]
  TGI: > 70.3 µM

## Cn1nc(-c2ccccc2NC(=O)C(F)(F)F)c(=O)n(C)c1=S
[1]
  TGI: > 100 µM
[2]
  TGI: > 100 µM
[5]
  TGI: > 100 µM
[6]
  TGI: 80.8 µM

## CCCCCCC(=O)C/C(CCC(=O)N(Cc1ccccc1)Cc1ccccc1)=N\Nc1ccc([N+](=O)[O-])cc1[N+](=O)[O-]
[1]
  TGI: 56.1 µM
[2]
  TGI: > 100 µM
[3]
  TGI: > 100 µM
[4]
  TGI: > 100 µM
[5]
  TGI: > 100 µM
[6]
  TGI: > 100 µM
[7]
  TGI: > 100 µM

## CC1=COC(=O)c2ccccc2N1
[1]
  TGI: > 100 µM
[2]
  TGI: > 100 µM
[4]
  TGI: > 100 µM
[5]
  TGI: > 100 µM
[6]
  TGI: > 100 µM
[7]
  TGI: > 100 µM

## CCOP(=O)(OCC)C1C(=O)O[C@H]2CCCC[C@@H]12 (stereo partly specified)
[1]
  TGI: > 100 µM
[2]
  TGI: > 100 µM
[3]
  TGI: > 100 µM
[4]
  TGI: > 100 µM
[5]
  TGI: > 100 µM
[6]
  TGI: > 100 µM
[7]
  TGI: > 100 µM

## C/C(=N\N(C)C)c1sc(-n2nc(-c3ccccc3)cc2-c2ccccc2)nc1C
[1]
  TGI: > 100 µM
[2]
  TGI: > 100 µM
[3]
  TGI: > 100 µM
[4]
  TGI: > 100 µM
[5]
  TGI: > 100 µM
[6]
  TGI: > 100 µM
[7]
  TGI: > 100 µM

## CC(=O)[CH-]C(=O)c1ccccc1.CC(=O)[CH-]C(=O)c1ccccc1.CCN(CC)CC[O-].CCN(CC)CC[O-].Cl.[Ti+4]
[4]
  GI50: 28.9 µM
  TGI: > 100 µM
[5]
  GI50: 22.2 µM
  TGI: 68.3 µM

## CCOC(=O)/N=c1\ss/c(=N\C(=S)N(C)C)n1-c1ccccc1
[1]
  TGI: > 100 µM
[2]
  GI50: 77.1 µM
  TGI: > 100 µM
[4]
  GI50: > 100 µM
  TGI: > 100 µM
[5]
  TGI: > 100 µM
[6]
  TGI: > 100 µM
[7]
  TGI: > 100 µM

## CC(=O)Oc1c(C)n(CCCl)ccc1=O
[1]
  TGI: > 100 µM
[2]
  TGI: > 100 µM
[3]
  TGI: > 100 µM
[4]
  TGI: > 100 µM
[5]
  TGI: > 100 µM
[7]
  TGI: > 100 µM

## C=C(c1ccccc1N)[C@@]1(O)C[C@H](/C(=C\C)CO)C[C@@H]1NCc1ccccc1
[1]
  TGI: 57.2 µM
[2]
  TGI: 84.5 µM
[3]
  TGI: 52.4 µM
[4]
  TGI: 42.6 µM
[6]
  TGI: > 100 µM
[7]
  TGI: 79.7 µM

## CC(Cl)(/C=C/Cl)C(Cl)/C=C/C(Cl)(CCl)CBr (stereo unspecified)
[1]
  TGI: 11.3 µM
[2]
  TGI: 17.1 µM
[3]
  TGI: 11.6 µM
[4]
  TGI: 23.9 µM
[5]
  TGI: 2.5 µM
[6]
  TGI: 7.16 µM
[7]
  TGI: 4.95 µM

## O/N=C1/C(=C/c2ccc(F)cc2)CCCC1C(NO)c1ccc(F)cc1 (stereo unspecified)
[1]
  TGI: > 100 µM
[2]
  TGI: > 100 µM
[3]
  TGI: 87.3 µM
[4]
  TGI: 72.2 µM
[5]
  TGI: > 100 µM
[6]
  TGI: 51.7 µM
[7]
  TGI: > 100 µM

## COC1C=C(Nc2cccc(Cl)c2)C(=O)C1 (stereo unspecified)
[1]
  TGI: > 100 µM
[2]
  TGI: > 100 µM
[3]
  TGI: 76.2 µM
[4]
  TGI: > 100 µM
[5]
  TGI: > 100 µM
[6]
  TGI: > 100 µM
[7]
  TGI: > 100 µM

## CCOC(=O)/C(C1=N[C@H](C(=O)OCC)CS1)=C(\C)O
[1]
  TGI: > 100 µM
[3]
  TGI: > 100 µM
[4]
  TGI: > 100 µM
[5]
  TGI: > 100 µM
[6]
  TGI: > 100 µM
[7]
  TGI: > 100 µM

## CC(C)=CC(=O)CC(=O)C(=O)Nc1ccc(C)c(C)c1
[1]
  TGI: > 100 µM
[2]
  TGI: > 100 µM
[4]
  TGI: > 100 µM
[5]
  TGI: > 100 µM
[6]
  TGI: > 100 µM
[7]
  TGI: > 100 µM

## O=C1C2=C(c3ccccc31)C(c1ccc(Cl)cc1)N1C(=O)CCSC1=N2 (stereo unspecified)
[1]
  TGI: > 100 µM
[2]
  TGI: > 100 µM
[4]
  TGI: > 100 µM
[5]
  TGI: > 100 µM
[6]
  TGI: > 100 µM

## S=c1[nH]nc(COc2ccc(Cl)cc2)o1
[1]
  TGI: > 100 µM
[2]
  TGI: > 100 µM
[3]
  TGI: > 100 µM
[4]
  TGI: > 100 µM
[5]
  TGI: > 100 µM
[6]
  TGI: > 100 µM
[7]
  TGI: > 100 µM

## COc1ccc(/C=C2/CCCC/C2=N/O)cc1
[1]
  TGI: > 100 µM
[2]
  TGI: > 100 µM
[3]
  TGI: > 100 µM
[4]
  TGI: > 100 µM
[5]
  TGI: > 100 µM
[6]
  TGI: > 100 µM
[7]
  TGI: > 100 µM

## O=C(Cc1ccccc1)NN1C(=O)C(Cl)C1c1cccc(O)c1 (stereo unspecified)
[1]
  TGI: 8.44 µM
[2]
  TGI: 37.9 µM
[3]
  TGI: 36.5 µM
[4]
  TGI: 32.2 µM
[5]
  TGI: 22.8 µM
[6]
  TGI: 35.2 µM
[7]
  TGI: 73.6 µM

## NNC(=O)/C(=C/c1cccc([N+](=O)[O-])c1)NC(=O)c1ccccc1
[1]
  TGI: > 100 µM
[2]
  TGI: > 100 µM
[3]
  TGI: > 100 µM
[5]
  TGI: > 100 µM
[6]
  TGI: > 100 µM
[7]
  TGI: > 100 µM

## COc1cc(C2C(Cl)C(=O)N2n2cnc3ccccc3c2=O)cc(OC)c1OC (stereo unspecified)
[1]
  TGI: > 100 µM
[2]
  TGI: > 100 µM
[3]
  TGI: > 100 µM
[4]
  TGI: > 100 µM
[5]
  TGI: > 100 µM
[6]
  TGI: > 100 µM
[7]
  TGI: > 100 µM

## NC(N)=NS(=O)(=O)c1ccc(NC(=O)c2cccc3c(Nc4ccc(S(=O)(=O)N=C(N)N)cc4)c4ccc(Cl)cc4nc23)cc1
[1]
  TGI: > 100 µM
[2]
  TGI: > 100 µM
[3]
  TGI: > 100 µM
[4]
  TGI: > 100 µM
[5]
  TGI: > 100 µM
[6]
  TGI: > 100 µM
[7]
  TGI: > 100 µM

## CCOC(=O)Cc1c(Cc2[nH]c(C(=O)OCc3ccccc3)c(CC(=O)OCC)c2CC(=O)OCC)[nH]c(C(=O)OCc2ccccc2)c1CC(=O)OCC
[1]
  TGI: > 100 µM
[3]
  TGI: > 100 µM
[4]
  TGI: > 100 µM
[5]
  TGI: > 100 µM
[7]
  TGI: > 100 µM

## CCCCN(CCCC)C(=O)C(=O)CC(=O)c1ccc(Br)cc1
[1]
  TGI: > 100 µM
[2]
  TGI: > 100 µM
[3]
  TGI: > 100 µM
[4]
  TGI: > 100 µM
[5]
  TGI: > 100 µM
[6]
  TGI: > 100 µM
[7]
  TGI: > 100 µM

## Cc1cc(Br)cc(C)c1NC(=O)C(=O)CC(=O)c1sc(-n2nc(-c3ccccc3)cc2-c2ccccc2)nc1C
[1]
  TGI: > 100 µM
[2]
  TGI: > 100 µM
[3]
  TGI: > 100 µM
[4]
  TGI: > 100 µM
[5]
  TGI: > 100 µM
[6]
  TGI: > 100 µM
[7]
  TGI: > 100 µM

## CC1=C(C(=O)Nc2ccccc2)C(c2ccc3c(c2)OCO3)C(C(=O)Nc2ccccc2)=C(C)N1
[1]
  TGI: 41 µM
[2]
  TGI: 86.5 µM
[3]
  TGI: > 100 µM
[5]
  TGI: > 100 µM
[6]
  TGI: > 100 µM

## Cn1ncc2cc3c(Nc4ccc(Cl)cc4)cccc3nc21
[1]
  TGI: 92.7 µM
[4]
  TGI: 34.8 µM
[5]
  TGI: 42.7 µM
[6]
  TGI: > 100 µM
[7]
  TGI: > 100 µM

## O=C1c2cc3c(cc2-c2c1c1cc(Cl)c(Cl)cc1c(=O)n2CCCn1ccnc1)OCO3
[1]
  GI50: < 0.01 µM
  TGI: > 100 µM
[8]
  GI50: < 0.01 µM
  TGI: 59.9 µM
[9]
  GI50: 17.1 µM
  TGI: > 100 µM
[6]
  GI50: < 0.01 µM
  TGI: 0.232 µM
[10]
  GI50: 0.0171 µM
  TGI: > 100 µM
[11]
  GI50: < 0.01 µM
  TGI: 0.0636 µM

## COc1c(OC(C)=O)ccc(/C=C2\N=C(C)OC2=O)c1[N+](=O)[O-]
[1]
  TGI: > 100 µM
[2]
  TGI: > 100 µM
[3]
  TGI: > 100 µM
[4]
  TGI: > 100 µM
[5]
  TGI: > 100 µM
[7]
  TGI: > 100 µM

## C/C(=N\NC(=S)Nc1ccc(C(=O)O)cc1)c1ccccn1
[1]
  TGI: > 100 µM
[2]
  TGI: 51.8 µM
[3]
  TGI: 97.5 µM
[4]
  TGI: 78.9 µM
[5]
  TGI: > 100 µM
[6]
  TGI: 98.6 µM
[7]
  TGI: > 100 µM

## CC(Cc1ccc(Cl)cc1Cl)NO (stereo unspecified)
[1]
  TGI: > 100 µM
[8]
  TGI: > 100 µM
[9]
  TGI: > 100 µM
[6]
  TGI: > 100 µM
[10]
  TGI: > 100 µM
[11]
  TGI: > 100 µM

## Nc1nc(N)[n+]([O-])c(N)c1NCO
[1]
  TGI: > 100 µM
[8]
  TGI: > 100 µM
[9]
  TGI: > 100 µM
[6]
  TGI: > 100 µM
[10]
  TGI: > 100 µM
[11]
  TGI: > 100 µM
